Measurements from ChEMBL document CHEMBL2150850, “Recent advances in the development of selective human MAO-B inhibitors: (hetero)arylidene-(4-substituted-thiazol-2-yl)hydrazines” (Eur J Med Chem, 2012).

Legend:
[1] = molecular target: T1, Amine oxidase [flavin-containing] B (Homo sapiens, UniProt P27338); assay: biochemical; format: cell-based, BTI-TN-5B1-4
T1 sequence (P27338 whole entry): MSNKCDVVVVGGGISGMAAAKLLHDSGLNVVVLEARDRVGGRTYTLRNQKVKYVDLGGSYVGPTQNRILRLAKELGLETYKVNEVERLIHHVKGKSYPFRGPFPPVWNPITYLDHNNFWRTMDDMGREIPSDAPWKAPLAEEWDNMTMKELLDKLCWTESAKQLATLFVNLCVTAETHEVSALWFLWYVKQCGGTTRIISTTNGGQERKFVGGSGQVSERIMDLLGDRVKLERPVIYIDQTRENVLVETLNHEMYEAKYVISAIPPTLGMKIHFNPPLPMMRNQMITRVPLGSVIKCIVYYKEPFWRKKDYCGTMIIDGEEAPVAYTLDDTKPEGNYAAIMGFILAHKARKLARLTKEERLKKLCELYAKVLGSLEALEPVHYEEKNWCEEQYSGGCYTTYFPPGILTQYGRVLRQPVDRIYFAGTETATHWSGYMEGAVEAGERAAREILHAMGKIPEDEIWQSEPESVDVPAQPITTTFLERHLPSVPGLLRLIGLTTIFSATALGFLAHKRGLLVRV
Description: Inhibition of human MAO-B expressed in baculovirus infected BTI-TN-5B1-4 cells using p-tyramine as substrate incubated for 15 mins prior to substrate addition measured for 15 mins by Amplex red assay

[2] = species on record: Homo sapiens; assay: Selectivity ratio of IC50 for human MAO-A to IC50 for human MAO-B
[3] = molecular target: T2, Amine oxidase [flavin-containing] A (Homo sapiens, UniProt P21397); assay: Inhibition of human MAO-A expressed in baculovirus infected BTI-TN-5B1-4 cells using p-tyramine as substrate at 100 uM incubated for 15 mins prior to substrate addition measured for 15 mins by Amplex red assay; conditions: for inhibition at 100 µM: BTI-TN-5B1-4, human, 0.25 h; for inhibition (INH): human, bti-tn-5b1-4, 0.25 h, 100 µM
T2 sequence (P21397 whole entry): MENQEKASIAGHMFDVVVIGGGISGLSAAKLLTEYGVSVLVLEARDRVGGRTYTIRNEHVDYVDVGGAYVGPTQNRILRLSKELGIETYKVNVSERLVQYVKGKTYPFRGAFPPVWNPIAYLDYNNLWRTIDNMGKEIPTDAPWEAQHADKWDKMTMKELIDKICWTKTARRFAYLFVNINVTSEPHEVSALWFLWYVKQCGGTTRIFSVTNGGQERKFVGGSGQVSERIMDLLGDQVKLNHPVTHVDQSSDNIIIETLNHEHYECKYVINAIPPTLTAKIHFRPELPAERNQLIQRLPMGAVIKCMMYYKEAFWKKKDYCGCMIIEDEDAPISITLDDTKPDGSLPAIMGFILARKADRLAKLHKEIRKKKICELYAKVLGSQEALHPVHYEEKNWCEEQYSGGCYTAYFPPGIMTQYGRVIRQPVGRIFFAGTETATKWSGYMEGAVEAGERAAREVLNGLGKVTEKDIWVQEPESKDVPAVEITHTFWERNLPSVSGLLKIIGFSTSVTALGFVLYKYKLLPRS

[4] = molecular target: T1, Amine oxidase [flavin-containing] B; assay: Inhibition of human MAO-B expressed in baculovirus infected BTI-TN-5B1-4 cells using p-tyramine as substrate at 100 uM incubated for 15 mins prior to substrate addition measured for 15 mins by Amplex red assay; conditions: for inhibition at 100 µM: BTI-TN-5B1-4, human, 0.25 h; for inhibition (INH): human, bti-tn-5b1-4, 0.25 h, 100 µM
[5] = molecular target: T2, Amine oxidase [flavin-containing] A; assay: Inhibition of human MAO-A expressed in baculovirus infected BTI-TN-5B1-4 cells using p-tyramine as substrate incubated for 15 mins prior to substrate addition measured for 15 mins by Amplex red assay

SMILES	IC50 [1] [nM]	Ratio IC50 [2]	inhibition at 100 µM [3] [%]	inhibition at 100 µM [4] [%]	IC50 [5] [nM]	inhibition (INH) [3]	inhibition (INH) [4]
C/C(=N/Nc1nc(-c2ccc(F)cc2F)cs1)c1ccco1	40.1	> 2490	40	–	–	–	–
N#Cc1ccc(-c2csc(N/N=C\c3cccc4ccccc34)n2)cc1	1100	> 91	40	–	–	–	–
Fc1ccc(-c2csc(N/N=C\c3c[nH]c4ccccc34)n2)c(F)c1	529	29	–	–	15300	–	–
Fc1ccc(-c2csc(N/N=C\c3cccnc3)n2)c(F)c1	199	> 504	40	–	–	–	–
C/C(=N/Nc1nc(-c2ccc(C#N)cc2)cs1)c1ccncc1	436	44	–	–	19100	–	–
C/C(=N/Nc1nc(-c2ccc(F)cc2)cs1)c1nccs1	1210	6.2	–	–	7550	–	–
C/C(=N/Nc1nc(-c2ccc(F)cc2)cs1)c1ccccn1	24.3	1720	–	–	41700	–	–
C/C(=N/Nc1nc(-c2ccc(C#N)cc2)cs1)c1nccs1	2000	1.4	–	–	2850	–	–
C/C(=N/Nc1nc(-c2ccc(F)cc2)cs1)c1cc2ccccc2oc1=O	–	–	–	–	–	Not Active	Not Active
N#Cc1ccc(-c2csc(N/N=C\c3c[nH]c4ccccc34)n2)cc1	762	> 131	–	–	–	Not Active	–
C/C(=N/Nc1nc(-c2ccc(F)cc2)cs1)c1ccccc1	351	12	–	–	4180	–	–
C/C(=N/Nc1nc(-c2ccc(F)cc2F)cs1)c1cccs1	3.01	> 33200	40	–	–	–	–
O=C(NCCN1CCOCC1)c1ccc(Cl)cc1 [MOCLOBEMIDE]	–	–	–	–	–	–	Not Active
C/C(=N/Nc1nc(-c2ccc(F)cc2F)cs1)c1ccc2ccccc2c1	–	–	–	40	–	Not Active	–
C/C(=N/Nc1nc(-c2ccc(F)cc2F)cs1)c1cccnc1	18.4	> 5430	40	–	–	–	–
C/C(=N/Nc1nc(-c2ccc(F)cc2F)cs1)c1ccncc1	16.7	> 5990	40	–	–	–	–
Fc1ccc(-c2csc(N/N=C\c3ccco3)n2)c(F)c1	217	42	–	–	9110	–	–

SMILES	IC50 [1] [nM]	Ratio IC50 [2]	inhibition at 100 µM [3] [%]	inhibition at 100 µM [4] [%]	IC50 [5] [nM]	inhibition (INH) [3]	inhibition (INH) [4]
Fc1ccc(-c2csc(N/N=C\c3ccncc3)n2)c(F)c1	549	> 182	–	–	–	Not Active	–
C/C(=N/Nc1nc(-c2ccc(F)cc2)cs1)c1cccs1	15.5	> 6460	40	–	–	–	–
Fc1ccc(-c2csc(N/N=C\c3cccc4ccccc34)n2)c(F)c1	138	> 727	40	–	–	–	–
C/C(=N/Nc1nc(-c2ccc(C#N)cc2)cs1)c1cc2ccccc2oc1=O	–	–	–	–	–	Not Active	Not Active
C/C(=N/Nc1nc(-c2ccc(F)cc2)cs1)c1ccco1	320	18	–	–	5670	–	–
C/C(=N/Nc1nc(-c2ccc(C#N)cc2)cs1)c1ccccc1	–	–	40	40	–	–	–
C/C(=N/Nc1nc(-c2ccc(C#N)cc2)cs1)c1cccs1	3110	> 32	40	–	–	–	–
C/C(=N/Nc1nc(-c2ccc(C#N)cc2)cs1)c1ccccn1	996	2.9	–	–	2850	–	–
Fc1ccc(-c2csc(N/N=C\c3cccs3)n2)cc1	338	> 295	40	–	–	–	–
C/C(=N/Nc1nc(-c2ccc(C#N)cc2)cs1)c1ccco1	–	–	40	40	–	–	–
Fc1ccc(-c2csc(N/N=C\c3cccs3)n2)c(F)c1	16.6	> 6030	40	–	–	–	–
C/C(=N/Nc1nc(-c2ccc(F)cc2F)cs1)c1cc2ccccc2oc1=O	1420	> 70	–	–	–	Not Active	–
C/C(=N/Nc1nc(-c2ccc(C#N)cc2)cs1)c1ccc2ccccc2c1	–	–	–	40	–	Not Active	–
C/C(=N/Nc1nc(-c2ccc(C#N)cc2)cs1)c1cccnc1	2.09	> 47800	40	–	–	–	–
C/C(=N/Nc1nc(-c2ccc(F)cc2)cs1)c1ccncc1	2.54	> 39400	40	–	–	–	–
Fc1ccc(-c2csc(N/N=C\c3c[nH]c4ccccc34)n2)cc1	578	> 173	40	–	–	–	–
Fc1ccc(-c2csc(N/N=C\c3cccc4ccccc34)n2)cc1	12800	> 7.8	40	–	–	–	–

Results, then the compound that gave them:

IC50 [1] [nM]	Ratio IC50 [2]	inhibition at 100 µM [3] [%]	inhibition at 100 µM [4] [%]	IC50 [5] [nM]	inhibition (INH) [3]	inhibition (INH) [4]	SMILES
–	–	40	40	–	–	–	C/C(=N/Nc1nc(-c2ccc([N+](=O)[O-])cc2)cs1)c1ccccc1
–	–	40	40	–	–	–	O=[N+]([O-])c1ccc(-c2csc(N/N=C\c3cccs3)n2)cc1
1080	> 93	40	–	–	–	–	Fc1ccc(-c2csc(N/N=C\c3ccc4c(c3)OCO4)n2)cc1
–	–	–	–	–	Not Active	Not Active	C/C(=N/Nc1nc(-c2ccc([N+](=O)[O-])cc2)cs1)c1cc2ccccc2oc1=O
26.7	1450	–	–	38700	–	–	C/C(=N/Nc1nc(-c2ccc([N+](=O)[O-])cc2)cs1)c1ccccn1
–	–	–	–	–	Not Active	Not Active	O=[N+]([O-])c1ccc(-c2csc(N/N=C\c3cccnc3)n2)cc1
1170	> 85	40	–	–	–	–	Fc1ccc(-c2csc(N/N=C\c3ccc4c(c3)OCO4)n2)c(F)c1
–	–	40	40	–	–	–	O=[N+]([O-])c1ccc(-c2csc(N/N=C\c3ccco3)n2)cc1
1490	> 67	40	–	–	–	–	N#Cc1ccc(-c2csc(N/N=C\c3ccco3)n2)cc1
366	24	–	–	8970	–	–	C/C(=N/Nc1nc(-c2ccc([N+](=O)[O-])cc2)cs1)c1nccs1
3590	–	40	–	–	–	–	C/C(=N/Nc1nc(-c2ccc([N+](=O)[O-])cc2)cs1)c1ccco1
–	–	–	–	–	Not Active	Not Active	C/C(=N/Nc1nc(-c2ccc([N+](=O)[O-])cc2)cs1)c1cccnc1
112	> 890	40	–	–	–	–	Fc1ccc(-c2csc(N/N=C\c3ccncc3)n2)cc1
653	> 153	40	–	–	–	–	Fc1ccc(-c2csc(N/N=C\c3ccco3)n2)cc1
–	–	–	–	–	Not Active	Not Active	O=[N+]([O-])c1ccc(-c2csc(N/N=C\c3c[nH]c4ccccc34)n2)cc1
301	> 332	40	–	–	–	–	N#Cc1ccc(-c2csc(N/N=C\c3ccc4c(c3)OCO4)n2)cc1
947	> 106	40	–	–	–	–	N#Cc1ccc(-c2csc(N/N=C\c3cccnc3)n2)cc1
–	–	–	–	–	Not Active	Not Active	O=[N+]([O-])c1ccc(-c2csc(N/N=C\c3ccc4c(c3)OCO4)n2)cc1
–	–	–	–	–	Not Active	Not Active	O=[N+]([O-])c1ccc(-c2csc(N/N=C\c3cccc4ccccc34)n2)cc1
298	–	–	–	–	Not Active	–	C/C(=N/Nc1nc(-c2ccc([N+](=O)[O-])cc2)cs1)c1cccs1
–	–	–	–	–	Not Active	Not Active	O=[N+]([O-])c1ccc(-c2csc(N/N=C\c3ccncc3)n2)cc1
482	> 207	40	–	–	–	–	Fc1ccc(-c2csc(N/N=C\c3cccnc3)n2)cc1
13.1	> 7620	–	–	–	Not Active	–	C/C(=N/Nc1nc(-c2ccc([N+](=O)[O-])cc2)cs1)c1ccncc1
